Experimental data published in patent EP3848017A1, “ORAL CARE COMPOSITION CONTAINING INDOLE COMPONENTS FOR TREATING CARIES” (3M Innovative Properties Company, priority 2020, dated 2021).

tested on: in vitro human saliva microcosm biofilm; assay: Determination of Lactic Acid Release (LAR) after Permanent Exposure Procedure (LDH-NAD-PMS-MTT enzyme assay); type: cell-based; settings: Indole 0.07 wt.% in MCM-1% sucrose, about 26 hours biofilm growth, 37 °C, vs untreated control TC0, negative number = release of lactic acid reduced
Protocol: To determine the metabolic activity of the biofilm sample, the accumulation of lactic acid in the supernatant (1.0 ml PBS-solution with 5% sucrose per each biofilm sample disc) was measured by using the Lactic acid dehydrogenase (LDH)- Nicotinamide-adenine-dinucleotide (NAD)-Phenazine Methosulphate (PMS) - Thiazolyl blue tetrazolium bromide (MTT) - enzyme assay. To ensure that only freshly produced lactic acid is determined, the biofilm samples were washed four times with 1.0 ml PBS solution for 30 sec each. After 30 min the accumulated amount of lactic acid in the supernatant was measured by analyzing 50 µl of the supernatant. The lactic acid was quantified by the lactic acid specific enzyme assay described above. Known correlation between measured enzyme activity and amount of lactic acid was used to translate measured enzyme activity into the amount of lactic acid present in sample of the supernatant. In accordance to the validation of the in vitro human saliva microcosm biofilm model, a compound should lower the lactic acid release in permanent application of at least 40 or at least 50 % in comparison to the untreated biofilm control. […] Bovine sample disks of about 10 x 10 mm (+/- 2mm) were incubated in a 24 well plate containing 1.8 ml medium in an incubator at 37°C and 60 rpm circular movement. The treatment composition described below were added by pipetting and removed by a suction pump. • Day 1: Four-hours inoculation of bovine sample disks with saliva-mcm media (MCM = mucine containing medium plus 1 % sucrose) at 37 °C (without active substance). • Fresh medium (MCM-1% sucrose) containing the respective amounts of indole component as given in Table 2. This Treatment Composition was used for another 3-hour incubation. • Fresh medium (MCM-1% sucrose and Treatment Composition) for storage for about 14h at 37 °C. • Day 2: Fresh medium (MCM-1% sucrose and Treatment Composition) for 2-hour incubation. • Fresh medium (MCM-1% sucrose and Treatment Composition) for another 2-hour incubation. […]

SMILES	inhibition at 0.07 %
COc1ccc2[nH]cc(CC(=O)O)c2c1 [TC2 - IA2, 5-Methoxy-3-Indoleacetic acid]	87.8%

same assay, conditions: Indole 0.073 wt.% in MCM-1% sucrose, about 26 hours biofilm growth, 37 °C, vs untreated control TC0, negative number = release of lactic acid reduced

SMILES	inhibition at 0.073 %
O=C(O)CCc1c[nH]c2ccccc12 [TC1 - IA1, Indole-3-propionic acid]	95.3%

same assay, conditions: Indole 0.1 wt.% in MCM-1% sucrose, about 26 hours biofilm growth, 37 °C, vs untreated control TC0, negative number = release of lactic acid reduced

SMILES	inhibition at 0.1 %
O=C(O)Cc1c[nH]c2ccccc12 [TC3 - IA3, Indole acetic acid]	78%

tested on: lactic acid producing bacteria in an oral biofilm; assay: not given; settings: qualitative statement; amino acids, as described in EP 18183601.6; cited from earlier work

SMILES	reducing the lactic-acid release of bacteria in a biofilm
N=C(N)NCCC[C@H](N)C(=O)O [arginine]	not effective
N[C@@H](CC(=O)O)C(=O)O [aspartic acid]	not effective
NC(=O)CC[C@H](N)C(=O)O [glutamine]	not effective
NCC(=O)O [glycine]	useful
N[C@@H](Cc1c[nH]cn1)C(=O)O [histidine]	not effective
CC[C@H](C)[C@H](N)C(=O)O [isoleucine]	useful
CC(C)C[C@H](N)C(=O)O [leucine]	useful
NCCCC[C@H](N)C(=O)O [lysine]	useful
CSCC[C@H](N)C(=O)O [methionine]	useful
N[C@@H](Cc1ccccc1)C(=O)O [phenylalanine]	useful
O=C(O)[C@@H]1CCCN1 [proline]	not effective
N[C@@H](CO)C(=O)O [serine]	useful
C[C@@H](O)[C@H](N)C(=O)O [threonine]	useful
N[C@@H](Cc1c[nH]c2ccccc12)C(=O)O [tryptophan]	useful
N[C@@H](Cc1ccc(O)cc1)C(=O)O [tyrosine]	not effective
CC(C)[C@H](N)C(=O)O [valine]	useful
